IC50 data for 20 compounds are collected here from the Kinase Knowledgebase extract (Sharma et al. 2016).

Test [1] deals with ROCK2 (human) (UniProt O75116). Put plainly: Assessment of ROCK2 Kinase Activity using Luciferin-Luciferase Assay.
The target of test [2] is ROCK2 (human) (UniProt O75116). Put plainly: Assessment of ROCK2 Kinase Activity using IMAP Assay.

ROCK2 (human), sequence (O75116 whole entry, looked up): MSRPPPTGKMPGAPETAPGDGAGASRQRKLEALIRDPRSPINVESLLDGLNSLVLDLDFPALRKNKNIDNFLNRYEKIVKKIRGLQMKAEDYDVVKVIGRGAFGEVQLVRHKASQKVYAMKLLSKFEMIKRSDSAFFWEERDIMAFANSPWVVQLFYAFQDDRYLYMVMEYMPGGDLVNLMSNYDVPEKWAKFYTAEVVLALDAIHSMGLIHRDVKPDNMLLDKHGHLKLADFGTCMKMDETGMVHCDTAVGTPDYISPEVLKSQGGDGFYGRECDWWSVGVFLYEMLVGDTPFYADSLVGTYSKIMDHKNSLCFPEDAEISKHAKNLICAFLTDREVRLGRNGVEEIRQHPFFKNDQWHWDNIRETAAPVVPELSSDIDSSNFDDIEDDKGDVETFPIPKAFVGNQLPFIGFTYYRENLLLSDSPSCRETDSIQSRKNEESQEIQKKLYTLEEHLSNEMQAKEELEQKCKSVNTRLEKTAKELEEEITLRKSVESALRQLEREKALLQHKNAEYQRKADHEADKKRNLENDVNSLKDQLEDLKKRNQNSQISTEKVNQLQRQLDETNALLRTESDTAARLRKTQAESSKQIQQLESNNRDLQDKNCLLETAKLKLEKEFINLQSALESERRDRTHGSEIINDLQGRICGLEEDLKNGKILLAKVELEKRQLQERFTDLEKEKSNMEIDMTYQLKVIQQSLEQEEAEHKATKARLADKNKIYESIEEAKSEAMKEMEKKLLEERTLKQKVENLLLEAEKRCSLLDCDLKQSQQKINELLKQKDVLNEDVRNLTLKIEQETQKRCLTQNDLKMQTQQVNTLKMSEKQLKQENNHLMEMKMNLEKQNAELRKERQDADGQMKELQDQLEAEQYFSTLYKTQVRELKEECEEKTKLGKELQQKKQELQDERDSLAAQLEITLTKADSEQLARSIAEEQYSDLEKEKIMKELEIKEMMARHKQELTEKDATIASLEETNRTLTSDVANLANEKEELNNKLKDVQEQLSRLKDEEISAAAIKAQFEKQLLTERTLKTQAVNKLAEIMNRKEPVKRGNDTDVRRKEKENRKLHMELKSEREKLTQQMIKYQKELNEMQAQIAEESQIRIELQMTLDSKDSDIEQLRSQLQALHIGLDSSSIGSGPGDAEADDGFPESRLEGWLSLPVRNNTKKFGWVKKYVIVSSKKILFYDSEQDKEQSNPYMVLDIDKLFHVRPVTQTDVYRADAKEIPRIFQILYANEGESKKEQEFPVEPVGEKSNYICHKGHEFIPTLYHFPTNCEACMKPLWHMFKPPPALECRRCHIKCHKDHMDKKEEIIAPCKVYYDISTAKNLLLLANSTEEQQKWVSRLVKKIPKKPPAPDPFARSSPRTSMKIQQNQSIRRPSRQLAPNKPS

For `CN1CCc2nc(NC(=O)c3cccc([C@H]4CCCN4C(=O)c4ccc(-n5ccnc5)cc4)c3)sc2C1`, the IC50 (as a rule, the concentration at which inhibition is half-maximal) in test [1] turned out to be 14.5 nM.

Regarding `CN1CCc2nc(NC(=O)c3cccc([C@H]4CCCN4C(=O)c4csc(-c5cccnc5)n4)c3)sc2C1`, the IC50 in test [1] worked out at 4 nM; in test [2], 13 nM. Consider `CN1CCc2nc(NC(=O)c3cccc([C@H]4CCCN4C(=O)c4cn5cc(C(N)=O)ccc5n4)c3)sc2C1`, for which the IC50 in test [1] worked out at 2.5 nM; in test [2], 7.4 nM. As for `N#Cc1cccc2c1CCN2C(=O)N1CCC[C@@H]1c1cccc(C(=O)Nc2nc3c(s2)C[C@@H](N2CCOCC2)CC3)c1`, the IC50 in test [2] came to 2.9 nM. As to `CN1CCc2nc(NC(=O)c3cccc([C@H]4CCCN4C(=O)c4csc(-c5ccncc5)n4)c3)sc2C1`, the results for the IC50 in test [1] and in test [2] were 6.1 nM and 16 nM, respectively. Turning to `CN1CCc2nc(NC(=O)c3cccc([C@H]4CCCN4C(=O)c4ccc5cc(O)ccc5c4)c3)sc2C1`, the IC50 in test [1] is 2.1 nM; in test [2], 4 nM. In turn, `COc1ccc(C(=O)N2CCC[C@@H]2c2cccc(C(=O)Nc3nc4c(s3)CN(C)CC4)c2)cc1OC` showed an IC50 in test [1] of 30.7 nM. Still for that read-out and setting: under `CN1CCc2nc(NC(=O)c3cccc([C@H]4CCCN4C(=O)Nc4cccc(C(N)=O)c4)c3)sc2C1` stands 94.6 nM; under `COc1ccc(C(=O)N2CCC[C@@H]2c2cccc(C(=O)Nc3nc4c(s3)CN(C)CC4)c2)cc1C`, 45.1 nM. Regarding `CN1CCc2nc(NC(=O)c3cccc([C@H]4CCCN4C(=O)c4ccc(-c5cnco5)cc4)c3)sc2C1`, the IC50 was found to be 2.6 nM in test [1] and 11.2 nM in test [2].

For `CN1CCc2nc(NC(=O)c3cccc([C@H]4CCCN4C(=O)c4cc(-c5ccncc5)[nH]n4)c3)sc2C1`, the IC50 in test [2] is 4.1 nM. As to `COc1ccc(C(=O)N2CCC[C@@H]2c2cccc(C(=O)Nc3nc4c(s3)C[C@@H](N3CCOCC3)CC4)c2)cc1Cl`, the values for the IC50 in test [1] and in test [2] were 5.8 nM and 7.9 nM, respectively. In the case of `COc1ccc(C(=O)N2CCC[C@@H]2c2cccc(C(=O)Nc3nc4c(s3)CN(C)CC4)c2)cc1Cl`, the IC50 in test [1] amounted to 38 nM.

`CN1CCc2nc(NC(=O)c3cccc(OCC(=O)Nc4ccc(C#N)cc4)c3)sc2C1` yielded an IC50 in test [1] of 23.4 nM.

In the case of `N#Cc1cccc(NC(=O)N2CCC[C@@H]2c2cccc(C(=O)Nc3nc4c(s3)C[C@@H](N3CCOCC3)CC4)c2)c1`, the IC50 in test [2] is 0.6 nM. This counts as sub-nanomolar.

In test [1], `CN1CCc2nc(NC(=O)c3cccc([C@H]4CCCN4C(=O)c4cccc(-c5cccnc5)c4)c3)sc2C1` registered an IC50 of 80.4 nM. As to `CN1CCc2nc(NC(=O)c3cccc([C@H]4CCCN4C(=O)c4nnn(-c5nonc5N)c4-c4ccccc4)c3)sc2C1`, the IC50 in test [1] turned out to be 6 nM; in test [2], 44 nM. Take `Cc1nnnn1-c1ccc(C(=O)N2CCC[C@@H]2c2cccc(C(=O)Nc3nc4c(s3)CN(C)CC4)c2)cc1`: the IC50 in test [1] was 91.4 nM. With `N#CCCN[C@H]1CCc2nc(NC(=O)c3cccc(OCC(=O)Nc4ccc(C#N)cc4)c3)sc2C1`, the figures for the IC50 in test [1] and in test [2] were 5.2 nM and 27 nM, respectively. Take `N#Cc1ccc(NC(=O)COc2cccc(C(=O)Nc3nc4c(s3)C[C@@H](NCCC(F)(F)F)CC4)c2)cc1`: the figures for the IC50 in test [1] and in test [2] were 5.1 nM and 32 nM, respectively.
